One test deals with Staphylococcus aureus (Sau) 516 cells. The experiment in a line: Bacterial Susceptibility Testing Methods 2 (microbroth dilution, growth inhibition). The note with it: Staphylococcus aureus, Tested Concentration 8 μg/mL; Staphylococcus aureus 516 cell growth suppressed compared to untreated sample. Format: cell-based. The text has this: Compounds may be tested for antimicrobial activity by susceptibility testing using microbroth dilution methods recommended by CSLI. Compounds may be dissolved in dimethylsulfoxide and tested in 10 doubling dilutions in the susceptibility assays such that the final dimethylsulfoxide concentration in the assay is 2% (v/v). The Staphylococcus aureus (Sau) 516 cells used in the assay may be grown overnight on appropriate agar media and then suspended in the NCCLS-recommended liquid susceptibility-testing media. […] Plates may be incubated under appropriate conditions of atmosphere and temperature and for times according to NCCLS standard methods prior to being read. As used in Table 1 below, the term “inhibition” refers to the percentage of Staphylococcus aureus 516 cell growth that is suppressed (compared to an untreated sample) by the compound of the indicated example number. When tested in the above in-vitro assay, the compounds and salts of the example numbers listed below were tested at the indicated concentrations, providing the indicated inhibitions. In most instances, the highest concentrations at which the compounds were tested was 8 μg/mL. In some instances, however, compounds were tested at concentrations higher than 8 μg/mL, typically when the concentration was first measured in μM and was subsequently converted to μg/mL. In those cases in which compounds were tested at more than one concentration higher than 8 μg/mL, the concentration closest to 8 μg/mL is provided below.
Turning to `COc1ccc2ncc(=O)n(CCN3CCC(NCc4cc5c(cn4)OCCO5)C(O)C3)c2c1` (single isomer, unassigned) [Example 29, 1-(2-{4-[(2,3-Dihydro[1,4]dioxino[2,3-c]pyridin-7-ylmethyl)amino]-3-hydroxypiperidin-1-yl}ethyl)-7-methoxyquinoxalin-2(1H)-one], the inhibition at 8 µg/mL amounted to 84%. Regarding `COc1ccc2ncc(=O)n(CCN3CCC(NCc4ccc5c(n4)NC(=O)CO5)C(O)C3)c2c1` (single isomer, unassigned) [Example 30, 6-[({3-Hydroxy-1-[2-(7-methoxy-2-oxoquinoxalin-1(2H)-yl)ethyl]piperidin-4-yl}amino)methyl]-2H-pyrido[3,2-b][1,4]oxazin-3(4H)-one], the inhibition at 8 µg/mL worked out at 98%. The compound `N#Cc1ccc2ccc(=O)n(CCN3CC[C@H](NCc4ccc5c(n4)NC(=O)CS5)[C@H](O)C3)c2c1` [Example 3, 1-[2-((3R,4S)-3-Hydroxy-4-{[(3-oxo-3,4-dihydro-2H-pyrido[3,2-b][1,4]thiazin-6-yl)methyl]amino}piperidin-1-yl)ethyl]-2-oxo-1,2-dihydroquinoline-7-carbonitrile] had an inhibition at 8 µg/mL of 99%. The same measure, in the same setting: the same measure for `N#Cc1ccc2ccc(=O)n(CCN3CC[C@@H](NCc4cc5c(cn4)OCCO5)[C@@H](O)C3)c2c1` [Example 4, 1-(2-{(3S,4R)-4-[(2,3-Dihydro[1,4]dioxino[2,3-c]pyridin-7-ylmethyl)amino]-3-hydroxypiperidin-1-yl}ethyl)-2-oxo-1,2-dihydroquinoline-7-carbonitrile]: 100%. Still for that read-out and setting: the same measure for `N#Cc1ccc2ccc(=O)n(CCN3CC[C@@H](NCc4ccc5c(n4)NC(=O)CO5)[C@@H](O)C3)c2c1` [Example 5, 1-[2-((3S,4R)-3-Hydroxy-4-{[(3-oxo-3,4-dihydro-2H-pyrido[3,2-b][1,4]oxazin-6-yl)methyl]amino}piperidin-1-yl)ethyl]-2-oxo-1,2-dihydro quino line-7-carbonitrile]: 100%. `N#Cc1ccc2ccc(=O)n(CCN3CC[C@@H](NCc4ccc5c(n4)NC(=O)CS5)[C@@H](O)C3)c2c1` [Example 6, 1-[2-((3S,4R)-3-Hydroxy-4-{[(3-oxo-3,4-dihydro-2H-pyrido[3,2-b][1,4]thiazin-6-yl)methyl]amino}piperidin-1-yl)ethyl]-2-oxo-1,2-dihydro quino line-7-carbonitrile] showed an inhibition at 8 µg/mL of 99%.

The compound `COc1ccc2ncc(=O)n(CCN3CC[C@H](NCc4cc5c(cn4)OCCO5)[C@H](O)C3)c2c1` [Example 7, 1-(2-{(3R,4S)-4-[(2,3-Dihydro[1,4]dioxino[2,3-c]pyridin-7-ylmethyl)amino]-3-hydroxypiperidin-1-yl}ethyl)-7-methoxyquinoxalin-2(1H)-one] yielded an inhibition at 8 µg/mL of 100%. `COc1ccc2ncc(=O)n(CCN3CC[C@H](NCc4ccc5c(n4)NC(=O)CO5)[C@H](O)C3)c2c1` [Example 8, 6-[({(3R,4S)-3-Hydroxy-1-[2-(7-methoxy-2-oxoquinoxalin-1(2H)-yl)ethyl]piperidin-4-yl}amino)methyl]-2H-pyrido[3,2-b][1,4]oxazin-3(4H)-one] had an inhibition at 8 µg/mL of 99%. `COc1ccc2ncc(=O)n(CCN3CC[C@@H](NCc4cc5c(cn4)OCCO5)[C@@H](O)C3)c2c1` [Example 10, 1-(2-{(3S,4R)-4-[(2,3-Dihydro[1,4]dioxino[2,3-c]pyridin-7-ylmethyl)amino]-3-hydroxypiperidin-1-yl}ethyl)-7-methoxyquinoxalin-2(1H)-one] showed an inhibition at 8 µg/mL of 100%. Still for that read-out and setting: the same measure for `COc1ccc2ncc(=O)n(CCN3CC[C@@H](NCc4ccc5c(n4)NC(=O)CO5)[C@@H](O)C3)c2c1` [Example 11, 6-[({(3S,4R)-3-Hydroxy-1-[2-(7-methoxy-2-oxoquinoxalin-1(2H)-yl)ethyl]piperidin-4-yl}amino)methyl]-2H-pyrido[3,2-b][1,4]oxazin-3(4H)-one]: 100%. Still for that read-out and setting: the same measure for `N#Cc1ccc2ccc(=O)n(CCN3CC[C@@H](NCc4cc5c(cn4)OCCO5)[C@@H](F)C3)c2c1` [Example 12, 1-(2-{(3S,4R)-4-[(2,3-Dihydro[1,4]dioxino[2,3-c]pyridin-7-ylmethyl)amino]-3-fluoropiperidin-1-yl}ethyl)-2-oxo-1,2-dihydroquinoline-7-carbonitrile]: 100%; for `N#Cc1ccc2ccc(=O)n(CCN3CC[C@H](NCc4cc5c(cn4)OCCO5)[C@H](F)C3)c2c1` [Example 13, 1-(2-{(3R,4S)-4-[(2,3-Dihydro[1,4]dioxino[2,3-c]pyridin-7-ylmethyl)amino]-3-fluoropiperidin-1-yl}ethyl)-2-oxo-1,2-dihydro quino line-7-carbonitrile]: 100%; for `COc1ccc2ncc(=O)n(CCN3CC[C@@H](NCc4cc5c(cn4)OCCO5)[C@@H](OC)C3)c2c1` [Example 14, 1-(2-{(3S,4R)-4-[(2,3-Dihydro[1,4]dioxino[2,3-c]pyridin-7-ylmethyl)amino]-3-methoxypiperidin-1-yl}ethyl)-7-methoxyquinoxalin-2(1H)-one]: 100%.

The same test, now with this note: Staphylococcus aureus, Tested Concentration 12 μg/mL; Staphylococcus aureus 516 cell growth.
In turn, `COc1ccc2ncc(=O)n(CCN3CCC(NCc4ccc5c(n4)NC(=O)CO5)C(F)C3)c2c1` (single isomer, unassigned) [Example 36, 6-[({3-Fluoro-1-[2-(7-methoxy-2-oxoquinoxalin-1(2H)-yl)ethyl]piperidin-4-yl}amino)methyl]-2H-pyrido[3,2-b][1,4]oxazin-3(4H)-one] displayed an inhibition at 12 µg/mL of 90%. Same read-out and setting: the same measure for `N#Cc1ccc2ccc(=O)n(CCN3CCC(NCc4ccc5c(n4)NC(=O)CO5)C(F)C3)c2c1` (single isomer, unassigned) [Example 38, 1-[2-(3-Fluoro-4-{[(3-oxo-3,4-dihydro-2H-pyrido[3,2-b][1,4]oxazin-6-yl)methyl]amino}piperidin-1-yl)ethyl]-2-oxo-1,2-dihydro quino line-7-carbonitrile]: 100%.

The test is the same for the next values; noted with them: Staphylococcus aureus, Tested Concentration 13 μg/mL; Staphylococcus aureus 516 cell growth.
`N#Cc1ccc2ccc(=O)n(CCN3CCC(NCc4cc5c(cn4)OCCO5)C(F)C3)c2c1` (single isomer, unassigned) [Example 33, 1-(2-{4-[(2,3-Dihydro[1,4]dioxino[2,3-c]pyridin-7-ylmethyl)amino]-3-fluoropiperidin-1-yl}ethyl)-2-oxo-1,2-dihydroquinoline-7-carbonitrile] displayed an inhibition at 13 µg/mL of 96%.

Still in this test, the particulars now being: Staphylococcus aureus, Tested Concentration 14 μg/mL; Staphylococcus aureus 516 cell growth.
`COc1ccc2ncc(=O)n(CCN3CCC(NCc4cc5c(cn4)OCCO5)C(F)C3)c2c1` (single isomer, unassigned) [Example 35, 1-(2-{4-[(2,3-Dihydro[1,4]dioxino[2,3-c]pyridin-7-ylmethyl)amino]-3-fluoropiperidin-1-yl}ethyl)-7-methoxyquinoxalin-2(1H)-one] registered an inhibition at 14 µg/mL of 100%.

Staying with this test, now noted: Tested Concentration 8 μg/mL; Staphylococcus aureus 516 cell growth suppressed compared to untreated sample.
In the case of `COc1ccc2ncc(=O)n(CCN3CCC(NCc4cc5c(cn4)OCCO5)C(O)C3)c2c1` (single isomer, unassigned) [Example 31, 1-(2-{4-[(2,3-dihydro[1,4]dioxino[2,3-c]pyridin-7-ylmethyl)amino]-3-hydroxypiperidin-1-yl}ethyl)-7-methoxyquinoxalin-2(1H)-one], the “Inhibition (%)” value turned out to be 87%. Consider `COc1ccc2ncc(=O)n(CCN3CCC(NCc4ccc5c(n4)NC(=O)CO5)C(O)C3)c2c1` (single isomer, unassigned) [Example 32, 6-[({3-Hydroxy-1-[2-(7-methoxy-2-oxoquinoxalin-1(2H)-yl)ethyl]piperidin-4-yl}amino)methyl]-2H-pyrido[3,2-b][1,4]oxazin-3 (4H)-one], for which the “Inhibition (%)” value stood at 98%. Same read-out and setting: the same measure for `N#Cc1ccc2ccc(=O)n(CCN3CC[C@H](NCc4cc5c(cn4)OCCO5)[C@H](O)C3)c2c1` [Example 1]: 100%; for `COc1ccc2ncc(=O)n(CCN3CC[C@H](NCc4ccc5c(n4)NC(=O)CS5)[C@H](O)C3)c2c1` [Example 9]: 100%.

The same test, now with this note: Tested Concentration 12 μg/mL; Staphylococcus aureus 516 cell growth.
For the compound `COc1ccc2ncc(=O)n(CCN3CCC(NCc4ccc5c(n4)NC(=O)CO5)C(F)C3)c2c1` (single isomer, unassigned) [Example 40, 6-[({3-Fluoro-1-[2-(7-methoxy-2-oxoquinoxalin-1(2H)-yl)ethyl]piperidin-4-yl}amino)methyl]-2H-pyrido[3,2-b][1,4]oxazin-3 (4H)-one], the “Inhibition (%)” value is 100%.

The test is the same for the next values; noted with them: Tested Concentration 13 μg/mL; Staphylococcus aureus 516 cell growth.
Take `N#Cc1ccc2ccc(=O)n(CCN3CCC(NCc4cc5c(cn4)OCCO5)C(F)C3)c2c1` (single isomer, unassigned) [Example 37, 1-(2-{4-[(2,3-Dihydro[1,4]dioxino[2,3-c]pyridin-7-ylmethyl)amino]-3-fluoropiperidin-1-yl}ethyl)-2-oxo-1,2-dihydroquinoline-7-carbonitrile]: the “Inhibition (%)” value is given as 100%.

The same test, now with this note: Tested Concentration 14 μg/mL; Staphylococcus aureus 516 cell growth.
`COc1ccc2ncc(=O)n(CCN3CCC(NCc4cc5c(cn4)OCCO5)C(F)C3)c2c1` (single isomer, unassigned) [Example 39, 1-(2-{4-[(2,3-Dihydro[1,4]dioxino[2,3-c]pyridin-7-ylmethyl)amino]-3-fluoropiperidin-1-yl}ethyl)-7-methoxyquinoxalin-2(1H)-one]: the “Inhibition (%)” value worked out at 100%.

For orientation: inhibition means the share of the control response that was lost under treatment.

The record behind these values is patent US20120270864A1, “2-QUINOLINONE AND 2-QUINOXALINONE-DERIVATIVES AND THEIR USE AS ANTIBACTERIAL AGENTS” (ASTRAZENECA AB, priority 2006, published 2012).
